# Data taken from paper PMC6429459, “The HslV Protease from Leishmania major and Its Activation by C-terminal HslU Peptides” (International Journal of Molecular Sciences, 2019).
# “Also recorded” adds a separate entry of the source. Square brackets hold non-standard residues; d marks the D form. Peptide text beside a SMILES is read from it. * marks the point of attachment. AMC = Cc1cc(=O)oc2cc(N*)ccc12; Cbz = O=C(OCc1ccccc1)*; AEEA = NCCOCCOCC(=O)O
# Assays:
# recombinant LmHslV [1] = assay: LmHslV peptidase activation by HslU C-terminal peptides, substrate Z-EVNL-AMC (JMV4482); format: biochemical, Leishmania major; settings: for LmHslV activation relative to reference peptide 10 (LmC12-U2): LmHslV 75.2 nM, initial velocity normalised to 10 = 100%, Figure 3; for LmHslV activation, Ala-scan, D-scan and truncations, relative to LmC12-U2: LmHslV 2 μg, 30 min at 37 °C, JMV4482 (Z-EVNL-AMC) 100 μM, Figure 4
# Method: (§1) Activity assay: The peptidase activity of recombinant LmHslV was assessed by measuring the fluorescence of AMC released after hydrolysis of the fluorogenic substrates Z-GGL-AMC or JMV4482 (Z-EVNL-AMC), 100 µM. LmHslV activation was obtained by addition of activating peptides (see type and concentration in the figure legends). Activity buffer: 25 mM Tris-HCl pH 8.0, 1 mM DTT, 0.5 mM EDTA and 5 mM MgCl2. Most of the experiments were performed in a final volume of 50 µL in black 96-well microplates (Fisher Scientific, Illkirch, France. Fluorescence was measured using a spectrofluorimeter (BIO-TEK Instrument, Inc., Winooski, VT, USA): filters 360/340 for excitation and 460/440 for emission.
# Figure 3 Both peptides derived from the C-terminal end of either LmHslU1 or LmHslU2 and analogues from other microorganisms are able to support LmHslV activation. LmHslV (75,2nM) was incubated at 37 °C with the peptide substrate Z-EVNL-AMC (100 μM) in the presence of peptides 8–11 and 1–15 (500 μM). A scrambled version of LmC12-U2 (44) was also included. The fluorescence of the free AMC group, proportional to the activity of the sample, was measured at 2 min. intervals.
# Figure 4 Sequence requirements for activation of LmHslV by C-terminal LmHslU2 peptides. (A) Alascan. Percentage of initial velocity relative to compound LmC12-U2. Fluorescence was measured for 30 min incubation at 37 °C of LmHslV (2 μg) with 100 μM JMV4482 (Z-EVNL-AMC) in the presence of 500 μM peptides. (B) D-scan. Percentage of initial velocity relative to compound LmC12-U2. Activity was measured as in (A). (C) Truncated peptides. Percentage of activity relative to compound LmC12-U2, measured as in (A).
# Figure 5 Effect of conformational constraints on HslV activation by HslU C-terminal peptides. HslV activity was measured in the presence of various cyclic analogues of LmC12-U2 and LmC9-U2. Values are expressed as percentage of initial velocity relative to compound LmC12-U2.
# Figure S3. Effect of LmC12-U2 dimerization. LmHslV has been incubated at 37°C for 30 min with […]
# the substrate Z-EVNL-AMC (100µM). The fluorescence generated by the cleavage of the substrate was recorded at 5 min intervals. The dotted line represents the ratio at each time point between the fluorescence values obtained with the two peptides.
# (also on this page, place not known: dimerization . ( 12), Di-C12 / C12 Fluorescence (arbitrary unit) Ratio)
# [2] = Solubility in aqueous assay solutions (observation); settings: aqueous assay conditions, peptide concentrations in the millimolar range; in words
# recombinant LmHslV [3] = assay: LmHslV peptidase activation by HslU C-terminal peptides, substrate Z-GGL-AMC; format: biochemical, Leishmania major; settings: in words; for Activation of LmHslV (AMC fluorescence liberated per minute): LmHslV 300 nM, 37 °C, Z-GGL-AMC 100 μM, peptide 2.2 mM, read every 15 min for 2 h, mean of two replicates, Figure 1
# Method: as §1
# Figure 1 Activation of LmHslV by HslU-derived peptides. (A) Activation of LmHslV by peptides corresponding to the 8 C-terminal residues of LmHslU1 (compound 1) and U2 (compound 4). LmHslV (300 nM) was incubated at 37 °C with the peptide substrate Z-GGL-AMC (100μM) in the presence of vehicle (left) or 2.2 mM of the peptides H-LmC8-U1 or Ac-LmC8-U2. The fluorescence of the free AMC group liberated by hydrolysis of the substrate, which is proportional to the proteolytic activity of the sample, was measured every 15 min for 2 h. The activity is calculated as fluorescence units liberated by the minute during the linear period of the assay. The values are the mean of two experimental replicates for a representative experiment; errors bars represent deviation from the mean of the values. (B) LmHslV can also be activated by octapeptides derived from the C-terminus of […] from E. coli. Assays were performed as in (A), using compounds 4 (Ac-LmC8-U2), 6 (H-EcC8-U) and 7 (Ac-EcC8-U).
# LmHslV = assay: Degradation of fluorogenic substrates by LmC12-U2-activated LmHslV; format: biochemical, Leishmania major; settings: LmHslV 75.2 nM, 37 °C, substrate 100 μM, activating peptide LmC12-U2 500 μM; Figure 2; in words
# Method: as §1
# Figure 2 Degradation of different fluorogenic substrates by LmHslV. LmHslV (75.2 nM) was incubated at 37 °C with different fluorogenic substrates (100 μM) in the presence of the activating peptide LmC12-U2 (500 μM). The fluorescence of the free AMC group, proportional to the activity of the sample, was measured at 2 min. intervals. With each substrate, no activity was measured in the absence of activating peptide: for the sake of clarity, only the negative control values obtained with the substrate ZGGL-AMC are shown.
# [4] = Circular dichroism, α-helix content from θ at 222 nm; format: physicochemical; settings: for Helicity%: 25 mM Tris-HCl pH 8.0, 20 °C, 100% helicity for θ = −36,000; for θmre at 222 nm: 25 mM Tris-HCl pH 8.0, around 200 μM peptide, 20 °C, 1 mm cuvette, 3 scans
# Method: CD spectra (Figure S2) were recorded on a JASCO J-815 spectropolarimeter from 190 to 260 nm (data pitch of 0.1 nm, continuous scanning mode, 200 nm/min, 3 scans) at 20 °C, using a 1 mm path length cuvette. Baseline was corrected by subtracting the background from the sample spectrum.
# Peptides were solubilised in 50 mM Tris-HCl, pH 8.0 buffer at an estimated concentration of 400 μM according to their apparent molecular mass (i.e. M + xTFA with x = number of basic groups). The solutions were then diluted twice (25 mM Tris and around 200 μM peptides final concentrations) with: […]
# [5] = 37 °C, Z-EVNL-AMC 100 μM, peptide 500 μM, in words
molecule,measurement,setting,value
"1,2,3-Triazole-1,4 = [CH2CH2CO-(O2Oc)3-Leu-Gln-Lys-Asn-Val-Asn-Leu-Ala-Lys-Tyr-Leu-Leu-OH]2 [Compound 12]",HslV activity with dimer relative to monomer 10,"recombinant LmHslV [1]; LmHslV, 37 °C, 30 min, peptide 550 μM, Z-EVNL-AMC 100 μM, Figure S3, in words",about twice that reached with the monomer
CC[C@H](C)[C@H](NC(=O)[C@H](Cc1ccccc1)NC(=O)[C@H](CCCCN)NC(=O)[C@H](CCCCN)NC(=O)[C@@H](NC(=O)[C@H](CC(=O)O)NC(=O)[C@@H](NC(=O)[C@H](CCCCN)NC(=O)[C@H](CCCCN)NC(=O)[C@@H](NC(=O)[C@H](CCSC)NC(=O)COCCOCCNC(=O)[C@H](N)CCCNC(=N)N)C(C)C)C(C)C)[C@@H](C)CC)C(=O)N[C@@H](CC(C)C)C(=O)O [Compound 8] (H-[dR][AEEA]MVKKVDIKKFIL-OH),Solubility of activating peptide,[2],significantly more soluble than C8-U1
Ac-EDLSRFIL-OH [Compound 7],Activation of LmHslV (AMC fluorescence liberated per minute),recombinant LmHslV [3],also found to activate LmHslV
Ac-VNLAKYLL-OH [Compound 4],Activation of LmHslV (AMC fluorescence liberated per minute),recombinant LmHslV [3],robust activation
Cbz-Gly-Gly-Leu-{AMC},Degradation of fluorogenic substrate by activated LmHslV,LmHslV,degraded by peptide-activated LmHslV
H-EDLSRFIL-OH [Compound 6],Activation of LmHslV (AMC fluorescence liberated per minute),recombinant LmHslV [3],also found to activate LmHslV
H-VDIKKFIL-OH [Compound 1],Activation of LmHslV (AMC fluorescence liberated per minute),recombinant LmHslV [3],able to activate the protease
H-arg-O2OC-Asn-Val-Asn-Leu-Ala-Lys-Tyr-Leu-Leu-OH [Compound 29],Helicity%,[4]; 0% TFE,5%
same,θmre at 222 nm,[4]; 0% TFE,−1711 deg.cm^2.dmol^−1
same,Helicity%,[4]; 25% TFE,11%
same,θmre at 222 nm,[4]; 25% TFE,−4130 deg.cm^2.dmol^−1
same,Helicity%,[4]; 50% TFE,13%
same,θmre at 222 nm,[4]; 50% TFE,−4733 deg.cm^2.dmol^−1
H-arg-O2Oc-Asn-Leu-Tyr-Lys-Leu-Val-Gln-Leu-Leu-Asn-Lys-Ala-OH [Compound 44],LmHslV activation relative to reference peptide 10 (LmC12-U2),recombinant LmHslV [1]; [5],no activity
H-arg-O2Oc-Leu-Gln-Lys-Asn-Val-Asn-Leu-Ala-Lys-Phe-Leu-Leu-OH [Compound 11],LmHslV activation relative to reference peptide 10 (LmC12-U2),recombinant LmHslV [1]; [5],decreased activity; also recorded: reverse effect
H-arg-O2Oc-Leu-Gln-Lys-Asn-Val-Asn-Leu-Ala-Lys-Tyr-Leu-Leu-OH [Compound 10],"LmHslV activation, Ala-scan, D-scan and truncations, relative to LmC12-U2","recombinant LmHslV [1]; peptide 500 μM, in words",by far the most potent activator
same,Activation of LmHslV compared with LmC8-U2 peptide 4,"recombinant LmHslV [3]; substrate Z-GGL-AMC, preliminary experiments",much more efficiently than the LmC8-U2 peptide 4
H-arg-O2Oc-Leu-Gln-Lys-Asn-Val-Asn-Leu-ala-Lys-Tyr-Leu-Leu-OH [Compound 24],"LmHslV activation, Ala-scan, D-scan and truncations, relative to LmC12-U2","recombinant LmHslV [1]; peptide 500 μM, in words",residual activity
same,Decrease in activity relative to LmC12-U2,"recombinant LmHslV [1]; Z-EVNL-AMC 100 μM, peptide 500 μM, D-scan",80%
